These results are taken from patent publication US6680058B1, “Compositions and methods for contraception in or sterilization of mammals” (Board of Supervisors of Louisiana State University and …, priority 1997, dated 2004).

In data set [1] the target is T1, GnRH receptor (Rattus norvegicus, UniProt P30969).
T1 construct: specifically displaced radiolabelled monoiodinated-GnRH from rat pituitary membranes; from tissue; host or cells: rat pituitary membranes
T1 sequence (P30969 1-327): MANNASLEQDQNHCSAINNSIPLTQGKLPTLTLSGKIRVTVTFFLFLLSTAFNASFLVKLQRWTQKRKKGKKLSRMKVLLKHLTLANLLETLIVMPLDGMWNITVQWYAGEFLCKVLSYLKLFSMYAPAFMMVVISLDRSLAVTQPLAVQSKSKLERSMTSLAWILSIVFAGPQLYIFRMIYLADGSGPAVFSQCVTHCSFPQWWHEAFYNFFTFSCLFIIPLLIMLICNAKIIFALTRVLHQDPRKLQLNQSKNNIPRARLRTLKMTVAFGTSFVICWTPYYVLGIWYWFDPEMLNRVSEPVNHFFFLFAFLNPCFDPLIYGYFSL
In words: Displacement of radiolabelled monoiodinated-GnRH from rat pituitary membranes (Example 24). It is filed as binding. An excerpt: We also synthesized D-Lys^6GnRH (SEQ. ID NO. 13), so that hecate could be conjugated to the D-Lys^6, a position that could minimize interference with binding of the GnRH domain to the GnRH receptor. These synthetic peptides specifically displaced radiolabelled monoiodinated-GnRH from rat pituitary membranes.

In data set [2] the test system is sexually mature, Sprague-Dawley female rats. The experiment in a line: Sexually mature Sprague-Dawley female rats, single intravenous treatment, necropsy 48 or 96 hours after treatment, H&E and PAS stain (Examples 15-22). It is filed as in vivo, rat. To be noted: 334 μg in 200 μL saline (1.35 mM) i.v.; sacrificed 48 or 96 hours after injection. How it is done: Eight sexually mature, Sprague-Dawley female rats were randomly assigned to one of eight treatments. Each group of rats received a single treatment intravenously, as described below. Rats were sacrificed and necropsied either 48 or 96 hours after treatment. The ovaries, uterus, pancreas, liver, spleen, lungs, heart, thyroid, and adrenal glands were fixed in 10% buffered formalin; sectioned; and stained with H&E (hematoxylin and eosin) stain; except that the pituitary glands were stained with PAS (periodic acid-Schiff) stain with no counter-stain. The treatments were selected so that each animal received an equimolar amount of the compound with which it was treated.

Data set [3] has as its target T2, GnRH receptor (Homo sapiens, UniProt P30968).
T2 sequence (P30968 1-328): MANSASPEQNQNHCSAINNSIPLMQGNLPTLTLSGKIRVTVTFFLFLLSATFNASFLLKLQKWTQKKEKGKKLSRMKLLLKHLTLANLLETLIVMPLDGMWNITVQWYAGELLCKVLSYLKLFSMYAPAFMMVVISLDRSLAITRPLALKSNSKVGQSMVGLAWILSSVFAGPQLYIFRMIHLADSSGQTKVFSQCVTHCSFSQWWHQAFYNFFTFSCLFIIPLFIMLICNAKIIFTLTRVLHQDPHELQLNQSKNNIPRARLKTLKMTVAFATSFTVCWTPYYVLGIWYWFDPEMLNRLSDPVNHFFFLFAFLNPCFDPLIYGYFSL
The settings on record: reported; see U.S. Pat. No. 5,488,036; cited from earlier work.

Data set [4] has as its system cells of the flat oyster Ostrea edulis. The settings on record: at the doses that reduced parasite viability; Morvan et al. 1994; cited from earlier work.
In a further data set the test system is Bonamia ostreae. To be noted: in vitro; Morvan et al. 1994; cited from earlier work.
Another data set concerns granulosa cells. The experiment in a line: Steroid hormone production by granulosa cells (data not shown). Format: cell-based, bovine. An excerpt:
Stimulation of target cell hormone production was not required for cell lysis.

For the next data set, the system named is bovine granulosa cells. In words: In vitro lysis of bovine granulosa cells (Examples 33-34). It is filed as cell-based. To be noted: hecate alone; compared with small luteal cells. From the text: We also studied in vitro lysis of bovine granulosa cells with GnRH-hecate conjugate and with hecate-bLH conjugate. Granulosa cells were isolated from bovine pre-ovulatory follicles. (Granulosa cells are hormonally active cells with numerous LH receptors.) Our experiments with granulosa cells were otherwise generally similar to those described above for Examples 25-32.

The test system of data set [5] is pituitary basophilic (gonadotropic) cells. In words: Adult female rat pituitary gland sections in tissue culture, histology ten hours after treatment (Examples 1-6). Format: cell-based. To be noted: 50 μM hecate in the medium; ten hours. The procedure:
The pituitary gland of an adult female rat was harvested and divided into six sections of approximately equal size. One section was placed in each of six wells containing tissue culture medium at 37° C. A different treatment was applied to each well, as described below. Ten hours after treatment, the tissue from each well was fixed, and the histology of each was examined microscopically.

Data set [6] concerns sexually mature, mixed breed, female rats. The experiment in a line: Sexually mature female rats, double intravenous treatment, necropsy two weeks after treatment (Examples 9-14). To be noted: Treatment 12: hecate 337 μg i.v., repeated after 24 hours; two weeks. Format: in vivo, rat. From the text:
Eighteen sexually mature, mixed breed, female rats were randomly assigned to one of six groups containing three rats each. Each group of rats received a double treatment intravenously, as described below. Two weeks after the treatment, the rats were sacrificed and necropsied. The reproductive and endocrine organs were sectioned, weighed, and examined histologically.

The subject of data set [7] is bovine small luteal cells. The experiment in a line: In vitro lysis of bovine small luteal cells, Trypan Blue exclusion and release of lactic dehydrogenase (Examples 25-32). To be noted: 22 hr. incubation; for killing of small luteal cells: Trypan Blue exclusion. It is filed as cell-based. The procedure:
We studied in vitro lysis of bovine luteal cells with GnRH-hecate conjugate and with hecate-bLH conjugate (SEQ. ID NO. 12). (The bLH component of the conjugate is a 15-mer fragment of the beta chain of luteinizing hormone, SEQ. ID NO. 11). Small luteal cells were collected from cattle corpora lutea post-slaughter.
Small luteal cells in culture were incubated with one of the following treatments for 22 hours, and were then examined for viability using Trypan Blue exclusion and release of lactic dehydrogenase.

As to “D-Lys^6GnRH: GnRH analog with D-Lys at position 6, SEQ. ID NO. 13”, the “specific displacement of the radiolabelled peptide relative to equimolar concentrations of GnRH” value with GnRH receptor [1] (molar basis over a 1000-fold concentration range (n=6), native GnRH = 100%) is 187%±8%.
As to `CC(C)C[C@H](NC(=O)CNC(=O)[C@H](Cc1ccc(O)cc1)NC(=O)[C@H](CO)NC(=O)[C@H](Cc1c[nH]c2ccccc12)NC(=O)[C@H](Cc1cnc[nH]1)NC(=O)[C@@H]1CCC(=O)N1)C(=O)N[C@@H](CCCNC(=N)N)C(=O)N1CCC[C@H]1C(=O)NCC(N)=O` [GnRH, gonadotropin-releasing hormone, reference compound], the “gross lesions in the organs” value in data set [2] is “No gross lesions”.
Turning to `CC(C)C[C@H](NC(=O)[C@@H](COC(C)(C)C)NC(=O)[C@H](Cc1ccc(O)cc1)NC(=O)[C@H](CO)NC(=O)[C@H](Cc1c[nH]c2ccccc12)NC(=O)[C@H](Cc1cnc[nH]1)NC(=O)[C@@H]1CCC(=O)N1)C(=O)N[C@@H](CCCNC(=N)N)C(=O)N1CCC[C@H]1C(=O)NNC(N)=O` [goserelin], at GnRH receptor [3], the “binding affinity to the GnRH receptor compared with GnRH” value (from here on “binding affinity … compared with GnRH”) was “greater binding affinity to the GnRH receptor than does GnRH itself”.
Turning to “magainin 1: antimicrobial peptide magainin 1 (GIGKFLHSAGKFGKAFVGEIMKS; Magainin-1; UniProt P11006 37-59, looked up)”, in data set [4], the “effect on cells of the flat oyster Ostrea edulis” value is recorded as “did not affect”. Further, in the data set on Bonamia ostreae, the “viability of the parasite Bonamia ostreae” value was “selectively reduce the viability”.
In the case of `CCNC(=O)[C@@H]1CCCN1C(=O)[C@H](CCCNC(=N)N)NC(=O)[C@H](CC(C)C)NC(=O)[C@@H](COC(C)(C)C)NC(=O)[C@H](Cc1ccc(O)cc1)NC(=O)[C@H](CO)NC(=O)[C@H](Cc1c[nH]c2ccccc12)NC(=O)[C@H](Cc1cnc[nH]1)NC(=O)[C@@H]1CCC(=O)N1` [buserelin], the “binding affinity … compared with GnRH” value on GnRH receptor [3] is listed as “greater binding affinity to the GnRH receptor than does GnRH itself”.
“15-mer fragment of the bLH subunit: 15-mer fragment of the beta chain of luteinizing hormone, SEQ. ID NO. 11 (SYAVALSCQCALCRR)”: the “production of steroid hormones (stimulus-coupled response)” value in the data set on granulosa cells is on record as “did not initiate the production of steroid hormones”.
For “hecate: amphipathic lytic peptide, synthetic peptide analog of melittin, SEQ. ID NO. 2 (FALALKALKKALKKLKKALKKAL) [reference compound]”, the “susceptibility of granulosa cells to killing” value in the data set on bovine granulosa cells is listed as “much more susceptible to killing by hecate alone than were the small luteal cells”. For the same compound, the “histology of pituitary tissue after treatment” value in [5] is recorded as “appeared normal”. In [6], the ovarian function result is “normal ovarian function”. In [7] (1 μM), the “cell death of small luteal cells” value was “did not differ significantly from negative control (media) or from bLH alone”. Moreover, the “killing of small luteal cells” value in data set [7] (5 μM) is reported as “approximately 50%”; in data set [7] (10 μM), “Significant killing”.
As to `CCNC(=O)[C@@H]1CCCN1C(=O)[C@H](CCCNC(=N)N)NC(=O)[C@H](CC(C)C)NC(=O)[C@@H](CC(C)C)NC(=O)[C@H](Cc1ccc(O)cc1)NC(=O)[C@H](CO)NC(=O)[C@H](Cc1c[nH]c2ccccc12)NC(=O)[C@H](Cc1c[nH]cn1)NC(=O)[C@@H]1CCC(=O)N1` [leuprolide], at GnRH receptor [3], the “binding affinity … compared with GnRH” value is listed as “greater binding affinity to the GnRH receptor than does GnRH itself”.
In the case of “D-Lys^6GnRH-hecate: hecate conjugated to the D-Lys^6 of D-Lys^6GnRH”, in the data set with GnRH receptor [1] (as measured by cpm of radioactivity), the “displacement of radiolabelled monoiodinated-GnRH, compared with native mammalian GnRH” value is listed as “comparable to (and actually slightly greater than) displacement by native mammalian GnRH”.
